{
  "source": "patent US20020119995A1",
  "about": "“Inverse thiazolylamide derivatives” (priority 2000, published 2002)",
  "key": {"HSV-1 F": {"tested_on": "HSV-1 F", "assay": "anti-HSV screening test (cytopathogenic effect, fluorescein diacetate readout) in Vero cells, HSV-1 F", "assay_type": "cell-based", "details": "read-out: IC50 [μM] HSV-1 F/Vero", "method": "(§1) HSV (HSV-1 Walki, HSV-1F or HSV-2G) was cultivated on Vero cells (ATCC CCL-81) under the following conditions. The cells were grown in M199 medium (5% foetal calf serum, 2 mM glutamine, 100 IU/ml penicillin, 100 μg/ml streptomycin) in cell culture bottles at 37° C. and 5% CO2. The cells were split twice per week, in each case 1:4. For the infection, the medium was removed, the cells were washed with Hank's solution, detached using 0.05% trypsin, 0.02% EDTA (Seromed L2143) and incubated at a density of 4×10^5 cells per ml under the abovementioned conditions for 24 hours. The medium was then removed and the virus solution was added at an m.o.i. of <0.05 in a volume of 2 ml per 175 cm^2 of surface. The medium was incubated under the conditions mentioned for one hour and then made up to a volume of 50 ml per 175 cm^2 bottle. […] The virus was released by freezing (−80° C.) and thawing (37° C.) the cultures twice. Cell debris was removed by centrifugation (300 g, 10 min, 4° C.) and the supernatant was frozen down in aliquots at −80° C.\n(§2) The anti-HSV action was determined in a screening test system in 96-well microtitre plates using various cell lines of neuronal, lymphoid and epithelial origin, such as, for example, Vero (kidney cell line of the green monkey), MEF (murine embryonal fibroblasts), HELF (human embryonal fibroblasts), NT2 (human neuronal cell line) or Jurkat (human lymphoid T-cell line).\n(§3) The substances (50 mM), dissolved in DMSO (dimethyl sulphoxide), are examined on microtitre plates (for example 96-well MTP) in final concentrations of 250-0.5 μM (micromolar) in two replications (4 substances/plate). In the case of potent substances, the dilutions are continued for several plates up to 0.5 pM (picomolar). Also examined are toxic and cytostatic effects of the substances. After an appropriate dilution of the substances (1:2) on the microtitre plate in medium, a suspension of cells ([…] cells per well) such as, for example, of Vero cells in M199 (medium 199) with 5% foetal calf serum, 2 mM glutamine and optionally 100 IU/ml penicillin and 100 μg/ml streptomycin or of MEF cells in EMEM (Eagle's Minimum Essential Medium) with 10% foetal calf serum, 2 mM glutamine and optionally 100 IU/ml penicillin and 100 μg/ml streptomycin, or of HELF cells in EMEM with 10% foetal calf serum, 2 mM glutamine and optionally 100 IU/ml penicillin and 100 μg/ml streptomycin, or of NT2 and Jurkat cells in DMEM ([…] glucose plus pyridoxin) with 10% foetal calf serum, 2 mM glutamine, 1 mM sodium pyruvate, non-essential amino acids and optionally 100 IU/ml penicillin and 100 μg/ml streptomycin, is added to each well and the cells in the relevant wells are infected with an appropriate amount of virus (HSV-1 F or HSV-2 G having an m.o.i. (multiplicity of infection) of 0.0025 for HELF, Vero and MEF cells and an m.o.i. of 0.1 for NT2 and Jurkat cells). The plates are then incubated at 37° C. in a CO2 incubator (5% CO2) for several days. […] The plates are initially evaluated visually using a microscope and then analysed using a fluorescent dye. To this end, the cell supernatant of all wells of the MTP is aspirated and the wells are filled with 200 μl of PBS wash solution. The PBS is then aspirated and all the wells are filled with 200 μl of fluorescent dye solution (fluorescein diacetate, 10 μg/ml in PBS). After an incubation time of 30-90 min, the test plates are read in a fluorescence detector at an excitation wavelength of 485 nm and an emission wavelength of 538 nm."}, "HSV-2 G": {"tested_on": "HSV-2 G", "assay": "anti-HSV screening test (cytopathogenic effect, fluorescein diacetate readout) in Vero cells, HSV-2 G", "assay_type": "cell-based", "details": "read-out: IC50 [μM] HSV-2 G/Vero", "method": "as §1, §2, §3"}, "HSV-1": {"tested_on": "HSV-1", "assay": "in-vivo action: survival of intranasally HSV-infected mice", "design": "species or system BALB/cABom strain", "details": "HSV-1, intranasal infection 5×10^4 Pfu, female BALB/cABom mice; treated 3 times per day for 5 days from 6 hours after infection; from survival curves", "method": "6-week-old female mice, BALB/cABom strain were obtained from a commercial breeder (Bomholtgard Breeding and Research Centre Ltd.).\nThe animals were anaesthetized with diethyl ether (Merck) in a sealed glass vessel. 50 μl of a dilution of the virus stock (infection dose 5×10^4 Pfu) were introduced into the nose of the anaesthetized animals using an Eppendorf pipette. In 90-100% of the animals, this infection dose causes death by a generalized infection with prominent respiratory and central-nervous symptoms on average after 5 to 8 days.\n6 hours after the infection, the animals were treated with doses of 0.1-100 mg/kg of body mass, 3 times per day, at 7 a.m., 2 p.m. and 7 p.m., for a period of 5 days. The substances were pre-dissolved in DMSO and resuspended in tylose/PBS (Hoechst) (final concentration 1.5% DMSO, 0.5% tylose in PBS).\nAfter the last administration, the animals were monitored further and the time of death was determined."}, "[1]": {"details": "Human alphaherpesvirus 1, HSV-1 F, Vero cells, half-maximal fluorescence intensity with respect to the non-infected cell control"}, "[2]": {"details": "Human alphaherpesvirus 2, HSV-2 G, Vero cells, half-maximal fluorescence intensity with respect to the non-infected cell control"}},
  "note": "Where two headings read alike, the source gives them in different places.",
  "data": [
    {"smiles": "Cc1nc(C(C)C(=O)Nc2ccc(-c3ccccc3)cc2)sc1S(N)(=O)=O", "note": "(centres unmarked) [Example 1, 2-[5-(Aminosulphonyl)-4-methyl-1,3-thiazol-2-yl]-N-(1,1′-biphenyl-4-yl)-propanamide]", "values": [
      {"measurement": "IC50", "setting": "HSV-1 F; [1]", "value": 0.05, "unit": "µM"},
      {"measurement": "IC50", "setting": "HSV-2 G; [2]", "value": 0.03, "unit": "µM"}
    ]},
    {"smiles": "Cc1nc(C(C)C(=O)Nc2ccc(-c3ccccn3)cc2)sc1S(N)(=O)=O", "note": "(centres unmarked) [Example 2, 2-[5-(Aminosulphonyl)-4-methyl-1,3-thiazol-2-yl]-N-[4-(2-pyridinyl)-phenyl]propanamide]", "values": [
      {"measurement": "IC50", "setting": "HSV-1 F; [1]", "value": 0.2, "unit": "µM"},
      {"measurement": "IC50", "setting": "HSV-2 G; [2]", "value": 0.4, "unit": "µM"}
    ]},
    {"smiles": "Cc1nc(C(C)C(=O)Nc2ccc(-c3cc(F)ccc3F)cc2)sc1S(N)(=O)=O", "note": "(centres unmarked) [Example 3, 2-[5-(Aminosulphonyl)-4-methyl-1,3-thiazol-2-yl]-N-(2′,5′-difluoro-1,1′-biphenyl-4-yl)propanamide]", "values": [
      {"measurement": "IC50", "setting": "HSV-1 F; Human alphaherpesvirus 1, Vero", "value": 0.05, "unit": "µM"},
      {"measurement": "IC50", "setting": "HSV-2 G; Human alphaherpesvirus 2, Vero", "value": 0.01, "unit": "µM"},
      {"measurement": "ED90 (90% of the animals survive at this dose)", "setting": "HSV-1", "value": "about 3 mg/kg"}
    ]},
    {"smiles": "CCOc1ccc(NC(=O)C(C)c2nc(C)c(S(N)(=O)=O)s2)cc1", "note": "(centres unmarked) [Example 4, 2-[5-(Aminosulphonyl)-4-methyl-1,3-thiazol-2-yl]-N-(4-ethoxyphenyl)-propanamide]", "values": [
      {"measurement": "IC50", "setting": "HSV-1 F; [1]", "value": 0.75, "unit": "µM"},
      {"measurement": "IC50", "setting": "HSV-2 G; [2]", "value": 0.75, "unit": "µM"}
    ]},
    {"smiles": "CNS(=O)(=O)c1sc(C(C)C(=O)Nc2ccc(-c3ccccc3)cc2)nc1C", "note": "(centres unmarked) [Example 5, N-(1,1′-Biphenyl-4-yl)-2-{4-methyl-5-[(methylamino)sulphonyl]-1,3-thiazol-2-yl}propanamide]", "values": [
      {"measurement": "IC50", "setting": "HSV-1 F; [1]", "value": 0.1, "unit": "µM"},
      {"measurement": "IC50", "setting": "HSV-2 G; [2]", "value": 0.06, "unit": "µM"}
    ]}
  ]
}
